Measured values: patent publication US20180037568A1, “MODULATORS OF METHYL MODIFYING ENZYMES, COMPOSITIONS AND USES THEREOF” (Constellation Pharmaceuticals, Inc., priority 2015, published 2018)
Read-outs that look alike come from different tables or passages of the source.

Assays:
EZH2 = EZH2 (Homo sapiens, UniProt Q15910); test: EZH2 nuc BSA Brij 1.5 (IC50): rPRC2, biotinylated oligonucleosome substrate, 3H SAM FlashPlate; type: biochemical; conditions: 2 nM EZH2, 0.2 μM biotinylated oligonucleosomes, 0.2 μM 3H SAM, 3.6 μM H3K27me3 peptide
EZH2, sequence (Q15910 whole entry): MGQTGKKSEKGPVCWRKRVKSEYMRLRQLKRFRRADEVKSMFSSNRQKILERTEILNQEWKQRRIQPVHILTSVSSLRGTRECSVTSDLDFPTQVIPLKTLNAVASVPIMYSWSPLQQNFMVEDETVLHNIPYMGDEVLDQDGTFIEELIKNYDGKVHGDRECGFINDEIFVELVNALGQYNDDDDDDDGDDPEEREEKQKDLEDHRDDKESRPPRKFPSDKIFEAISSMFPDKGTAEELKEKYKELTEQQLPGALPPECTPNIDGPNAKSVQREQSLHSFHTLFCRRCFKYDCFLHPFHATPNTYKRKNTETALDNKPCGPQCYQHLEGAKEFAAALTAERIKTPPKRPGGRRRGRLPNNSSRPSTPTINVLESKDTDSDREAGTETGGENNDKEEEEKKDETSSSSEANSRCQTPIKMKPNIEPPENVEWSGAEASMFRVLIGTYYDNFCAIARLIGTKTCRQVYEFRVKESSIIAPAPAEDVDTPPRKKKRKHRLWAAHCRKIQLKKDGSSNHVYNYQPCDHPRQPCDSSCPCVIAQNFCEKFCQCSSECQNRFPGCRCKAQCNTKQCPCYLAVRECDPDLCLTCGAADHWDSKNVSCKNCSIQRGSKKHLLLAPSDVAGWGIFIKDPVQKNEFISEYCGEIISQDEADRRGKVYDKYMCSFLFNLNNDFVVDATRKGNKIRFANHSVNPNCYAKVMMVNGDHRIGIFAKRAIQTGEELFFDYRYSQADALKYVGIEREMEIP
EZH2, sequence (O75530 whole entry partner): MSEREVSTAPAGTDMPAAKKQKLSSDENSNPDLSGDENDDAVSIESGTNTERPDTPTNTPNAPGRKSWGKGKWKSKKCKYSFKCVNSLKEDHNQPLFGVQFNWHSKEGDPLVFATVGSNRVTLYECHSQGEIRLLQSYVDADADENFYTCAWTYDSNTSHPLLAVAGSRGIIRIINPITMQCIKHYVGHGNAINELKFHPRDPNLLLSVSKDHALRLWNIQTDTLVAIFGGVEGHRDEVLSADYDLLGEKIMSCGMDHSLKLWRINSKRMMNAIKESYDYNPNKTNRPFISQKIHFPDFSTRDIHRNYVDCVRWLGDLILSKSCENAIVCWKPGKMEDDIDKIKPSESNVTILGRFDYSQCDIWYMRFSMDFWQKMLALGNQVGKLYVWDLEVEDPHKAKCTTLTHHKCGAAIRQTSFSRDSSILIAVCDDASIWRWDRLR
EZH2, sequence (Q15022 whole entry partner): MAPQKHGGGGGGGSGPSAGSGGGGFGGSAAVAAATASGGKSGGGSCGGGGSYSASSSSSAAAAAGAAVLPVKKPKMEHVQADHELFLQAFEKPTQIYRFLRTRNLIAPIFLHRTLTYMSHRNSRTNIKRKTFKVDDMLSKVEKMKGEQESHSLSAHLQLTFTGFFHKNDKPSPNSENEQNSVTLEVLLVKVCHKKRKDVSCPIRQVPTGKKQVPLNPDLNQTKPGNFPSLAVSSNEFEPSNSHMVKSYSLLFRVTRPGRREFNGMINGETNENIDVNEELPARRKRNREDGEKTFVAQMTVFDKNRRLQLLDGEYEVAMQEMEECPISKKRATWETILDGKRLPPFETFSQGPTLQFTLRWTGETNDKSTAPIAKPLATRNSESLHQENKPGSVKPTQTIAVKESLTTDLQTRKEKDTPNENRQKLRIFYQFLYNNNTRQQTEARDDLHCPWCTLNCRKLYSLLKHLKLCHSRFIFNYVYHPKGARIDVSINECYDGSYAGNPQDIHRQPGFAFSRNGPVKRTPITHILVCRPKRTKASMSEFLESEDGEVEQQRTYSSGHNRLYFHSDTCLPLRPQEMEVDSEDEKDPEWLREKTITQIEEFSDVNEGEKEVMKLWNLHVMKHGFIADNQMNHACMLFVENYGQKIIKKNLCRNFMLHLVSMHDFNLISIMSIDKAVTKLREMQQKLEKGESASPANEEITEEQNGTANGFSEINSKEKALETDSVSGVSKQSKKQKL
Experimental: EZH2 Nuc BSA Brij 1.5 (IC50):
Assays were carried out by mixing rPRC2 together with biotinylated oligonucleosome substrates in the presence of the radio-labeled enzyme co-factor, S-adenosyl-L-methionine (^3H SAM) (Perkin Elmer) and monitoring the enzymatically mediated transfer of tritiated methyl groups from ^3H SAM to histone lysine residues. The amount of resulting tritiated methyl histone product was measured by first capturing the biotinylated oligonucleosomes in streptavidin (SAV) coated FlashPlates (Perkin Elmer), followed by a wash step to remove un-reacted ^3H SAM, and then counting on a TopCount NXT 384 well plate scintillation counter (Perkin Elmer). The final assay conditions for EZH2 were as follows: 50 mM Tris Buffer pH 8.5, 1 mM DTT, 69 μM Brij-35 detergent, 5.0 mM MgCl2, 0.1 mg/mL BSA, 0.2 μM ^3H SAM, 0.2 μM biotinylated oligonucleosomes, 3.6 μM H3K27me3 peptide and 2 nM EZH2.
Compound IC50 Measurements were Obtained as Follows:
Compounds were first dissolved in 100% DMSO as 10 mM stock solutions. Ten point dose response curves were generated by dispensing varying amounts of the 10 mM compound solution in 10 wells of the 384 well plate (Echo; Labcyte), pure DMSO was then used to backfill the wells to insure all wells have the same amount of DMSO. A 12.5 μL volume of the HMT enzyme, H3K27me3 peptide and oligonucleosome substrate in assay buffer was added to each well of the assay plate using a Multidrop Combi (ThermoFisher). Compounds were pre-incubated with the enzyme for 20 min, followed by initiation of the methyltransferase reaction by addition of 12.5 μL of ^3H SAM in assay buffer (final volume=25 μL). The final concentrations of compounds ranged from a top default concentration of 80 μM down to 0.16 μM in ten 2-fold dilution steps. Reactions were carried out for 60 minutes and quenched with 20 μL per well of 1.96 mM SAH, 50 mM Tris pH 8.5, 200 mM EDTA. Stopped reactions were transferred to SAV coated Flashplates (Perkin Elmer), incubated for 120 min, washed with a plate washer, and then read on the TopCount NXT (1.0 min/well) to measure the amount of methyl histone product formed during the reaction. The amount of methyl histone product was compared with the amount of product formed in the 0% and 100% inhibition control wells allowing the calculation of % Inhibition in the presence of the individual compounds at various concentrations. IC50's were computed using a 4 parameter fit non-linear curve fitting software package (XLFIT, part of the database package, ActivityBase (IDBS)) where the four parameters were IC50, Hill slope, pre-transitional baseline (0% INH), and post-transitional baseline (100% INH); with the latter two parameters being fixed to zero and 100%, respectively, by default.

H3K27me3 mark = test: H3K27me3 Alpha Hela Assay (AlphaLISA); type: cell-based; conditions: Hela cells, read-out: EZH2 Cell H3K27me3 Alpha HeLa (EC50 K27me3)
Experimental: EC50 Measurements for Inhibitors in HeLa Cell Assays
H3K27me3 Alpha Hela Assay (AlphaLISA). Ten different doses of each test compound (in a series of 3-fold dilutions) were plated in duplicate 384-well tissue culture treated plates (Catalog #781080; Greiner Bio One; Monroe, N.C.). Hela cells grown in culture were trypsinized and counted using a Countess® cell counter (Catalog # C10281; Life Technologies, Grand Island, N.Y.). Cell were diluted to 67,000 cells per mL in 10% DMEM (Catalog #10569-010 Life Technologies, Grand Island, N.Y.) and 15 μL (1,000 cells) were plated into each well using the Biotek MicroFlo™ Select Dispenser (BioTek Instruments, Inc. Vermont, USA),) of the 384-well plate. Plates were incubated at 37° C./5% CO2 for 72 hrs. One of the duplicate plates was processed for HeLa assay and the other for viability.
To the plate processed for AlphaLISA was added 5 μL per well Cell-Histone Lysis buffer (1×) (Catalog # AL009F1 Perkin Elmer; Waltham, Mass.) and the plate was incubated at RT for 30 minutes on a plate shaker with low speed (Model#4625-Q Thermo Scientific; Waltham, Mass.). Then, 10 μL per well Histone Extraction buffer (catalog # AL009F2; Perkin Elmer; Waltham, Mass.) was added and the plate further incubated at RT for 20 min on plate shaker with low speed. To each well was then added 10 μL per well of a 5× mix of anti-K27me3 acceptor beads plus Biotinylated anti-Histone H3 (C-ter) Antibody (diluted to 3 nM final) (Catalog #AL118 Perkin Elmer; Waltham, Mass.). Dilution of the acceptor beads and then anti-Histone H3 was with 1× Histone Detection buffer (Catalog # AL009F3 Perkin Elmer; Waltham, Mass.) which was produced diluted from the 10× stock provided. The plate was sealed with an aluminum plate sealer and incubated at 23° C. for 60 min. We then added 10 μL 5× solution of Streptavidin Donor beads (Catalog #6760002 Perkin Elmer; Waltham, Mass.) (20 μg/mL final in 1× Histone Detection Buffer), sealed the plate with Aluminum plate sealer and incubated at 23° C. for 30 min. The plates were then read using an EnVision-Alpha Reader (model #2104 Perkin Elmer; Waltham, Mass.).
Data from both assays was analyzed using Assay Assistant (Constellation Pharmaceuticals In-house product) and Activity Base (IDBS Ltd, Surrey, UK) template. Data files were imported to Assay Assistant and assay conditions were specified. A unique Analysis ID was created and the data files exported to Activity Base. An analysis template was created on Activity Base to measure dose-dependent inhibition of H3K27me3 mark and cell viability respectively. Readout of DMSO wells were used to normalize the data. Resulting curves were fitted using Activity base software Model 205 (IDBS Ltd, Surrey, UK). The data was checked for quality, validated and integrated in excel format using SARview (IDBS Ltd, Surrey, UK).

PRC2 containing wt EZH2 = target: T1, PRC2 containing wt EZH2 (Homo sapiens, UniProt Q15910); test: EZH2 pep BSA Brij 4.0 LowE (IC50): 3H-SAM incorporation into biotinylated H3 peptide; type: biochemical; conditions: 20 pM PRC2 wt EZH2, 0.9 μM 3H-SAM, biotinylated H3 peptide substrate, 2 μM H3K27me3 activating peptide
T1 construct: made in house
T1 sequence (Q15910 whole entry): as the sequence (Q15910 whole entry) above
T1 sequence (O75530 whole entry partner): as the sequence (O75530 whole entry partner) above
T1 sequence (Q15022 whole entry partner): as the sequence (Q15022 whole entry partner) above
T1 sequence (Q09028 whole entry partner): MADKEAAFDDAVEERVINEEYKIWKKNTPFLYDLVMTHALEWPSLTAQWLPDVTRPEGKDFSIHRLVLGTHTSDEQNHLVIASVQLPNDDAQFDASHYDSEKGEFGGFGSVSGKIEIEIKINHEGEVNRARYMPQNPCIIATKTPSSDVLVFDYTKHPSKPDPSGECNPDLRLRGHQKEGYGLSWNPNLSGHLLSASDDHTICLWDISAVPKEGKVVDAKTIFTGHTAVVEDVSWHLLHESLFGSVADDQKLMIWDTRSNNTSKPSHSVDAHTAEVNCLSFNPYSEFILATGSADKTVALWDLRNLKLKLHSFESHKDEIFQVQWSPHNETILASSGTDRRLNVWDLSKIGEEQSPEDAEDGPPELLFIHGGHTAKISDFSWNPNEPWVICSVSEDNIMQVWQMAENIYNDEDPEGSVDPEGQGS
T1 sequence (Q6ZN18 whole entry partner): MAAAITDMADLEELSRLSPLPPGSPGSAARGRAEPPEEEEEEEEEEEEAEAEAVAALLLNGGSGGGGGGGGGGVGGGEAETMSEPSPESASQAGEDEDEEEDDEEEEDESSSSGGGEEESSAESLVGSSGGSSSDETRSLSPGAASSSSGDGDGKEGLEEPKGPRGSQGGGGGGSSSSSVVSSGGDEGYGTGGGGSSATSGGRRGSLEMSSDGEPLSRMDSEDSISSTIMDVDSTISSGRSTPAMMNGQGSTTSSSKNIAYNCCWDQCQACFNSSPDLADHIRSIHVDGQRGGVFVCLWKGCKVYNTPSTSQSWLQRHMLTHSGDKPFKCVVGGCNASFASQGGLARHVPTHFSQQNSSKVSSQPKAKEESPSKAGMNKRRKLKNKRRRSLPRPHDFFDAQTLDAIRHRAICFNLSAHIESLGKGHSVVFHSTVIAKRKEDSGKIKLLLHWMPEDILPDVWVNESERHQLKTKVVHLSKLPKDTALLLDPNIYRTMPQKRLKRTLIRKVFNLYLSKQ
Experimental: EZH2 Pep BSA Brij 4.0 LowE (IC50):
Compound potencies were assessed through incorporation of ^3H-SAM into a biotinylated H3 peptide. Specifically, PRC2 containing wt EZH2 (20 pM), (pentameric complexes prepared in-house) was pre-incubated with ^3H-SAM (0.9 μM), 2 μM H3K27me3 activating peptide (H2N-RKQLATKAAR(Kme3)SAPATGGVKKP-amide) and compounds (as 10 point duplicate dose response titrations in DMSO, final assay 0.8% DMSO (v/v)) for 120 min in 50 mM Tris (pH 8.5), 1 mM DTT, 0.07 mM Brij-35, 0.1% BSA, and 0.8% DMSO in a total volume of 12.5 μl. Reaction was initiated with biotinylated H3 substrate peptide (H2N-RKQLATKAAR(Kme1)SAPATGGVKKP-NTPEGBiot) as a 2 μM stock in 12.5 μl of buffer and allowed to react at room temperature for 5 h. Quenching was accomplished by addition of 20 μl of STOP solution (50 mM Tris (pH 8.5), 200 mM EDTA, 2 mM SAH). 35 μl of the quenched solution was transferred to Streptavidin Flashplates, incubated overnight, washed, and read in a TopCount Reader (Perkin Elmer). IC50s were calculated relative to fully active and no enzyme control wells using non-linear least square four parameter fits.

[1] = read-out: EZH2 nuc BSA Brij 1.5 (IC50)
[2] = read-out: EZH2 pep BSA Brij 4.0 LowE (IC50)

In the case of COc1cc(C)[nH]c(=O)c1CNC(=O)c1c(C)n(C(C)C2CCN(C)c3ccccc32)c2ccccc12 (centres unmarked) [Compound 3, N-((4-methoxy-6-methyl-2-oxo-1,2-dihydropyridin-3-yl)methyl)-2-methyl-1-(1-(1-methyl-1,2,3,4-tetrahydroquinolin-4-yl)ethyl)-1H-indole-3-carboxamide], the IC50 (EZH2; EZH2 nuc BSA Brij 1.5 (IC50)) is reported as < 100 nM.
In the case of COc1cc(C)[nH]c(=O)c1CNC(=O)c1c(C)n(C(C)C2CCN(C)C(C(F)(F)F)C2)c2ccccc12 (single isomer, unassigned) [Compound 13, N-((4-methoxy-6-methyl-2-oxo-1,2-dihydropyridin-3-yl)methyl)-2-methyl-1-(1-(1-methyl-2-(trifluoromethyl)piperidin-4-yl)ethyl)-1H-indole-3-carboxamide], the EC50 (H3K27me3 mark; Homo sapiens, HeLa, 72 h) is reported as 400 to 2000 nM and the IC50 (EZH2; EZH2 nuc BSA Brij 1.5 (IC50)) is reported as < 100 nM.
With COc1cc(C)[nH]c(=O)c1CNC(=O)c1c(C)n(C(C)C2CCN(CC3CC3)C(C(F)(F)F)C2)c2ccccc12 (single isomer, unassigned) [Compound 39, 1-(1-(1-(cyclopropylmethyl)-2-(trifluoromethyl)piperidin-4-yl)ethyl)-N-((4-methoxy-6-methyl-2-oxo-1,2-dihydropyridin-3-yl)methyl)-2-methyl-1H-indole-3-carboxamide] the EC50 (H3K27me3 mark; 72 hrs) was > 2000 nM and the IC50 (EZH2; [1]) was < 100 nM.
In the case of COc1cc(C)[nH]c(=O)c1CNC(=O)c1c(C)n(C(C)C2CCNC(C(F)F)C2)c2ccccc12 (single isomer, unassigned) [Compound 37, 1-(1-(2-(difluoromethyl)piperidin-4-yl)ethyl)-N-((4-methoxy-6-methyl-2-oxo-1,2-dihydropyridin-3-yl)methyl)-2-methyl-1H-indole-3-carboxamide], the EC50 (H3K27me3 mark; 72 hrs) is reported as 400 to 2000 nM and the IC50 (EZH2; [1]) is reported as < 100 nM.
In the case of COc1cc(C)[nH]c(=O)c1CNC(=O)c1c(C)n(C(C)C2CCN(C)C(=O)C2)c2ccccc12 (centres unmarked) [Compound 11, N-((4-methoxy-6-methyl-2-oxo-1,2-dihydropyridin-3-yl)methyl)-2-methyl-1-(1-(1-methyl-2-oxopiperidin-4-yl)ethyl)-1H-indole-3-carboxamide], the EC50 (H3K27me3 mark; Homo sapiens, HeLa, 72 h) is reported as > 2000 nM and the IC50 (EZH2; EZH2 nuc BSA Brij 1.5 (IC50)) is reported as < 100 nM.
Cc1cc(C)c(CNC(=O)c2c(C)n(C(C)C3CCNC(C(F)(F)F)C3)c3ccccc23)c(=O)[nH]1 (single isomer, unassigned) [Compound 16, N-((4,6-dimethyl-2-oxo-1,2-dihydropyridin-3-yl)methyl)-2-methyl-1-(1-(2-(trifluoromethyl)piperidin-4-yl)ethyl)-1H-indole-3-carboxamide] was tested, and the IC50 (EZH2; EZH2 nuc BSA Brij 1.5 (IC50)) was < 100 nM.
In the case of COc1cc(C)[nH]c(=O)c1CNC(=O)c1c(C)n(C(C)C2CCNC(C(F)(F)F)C2)c2ccccc12 (single isomer, unassigned) [Compound 23, N-((4-methoxy-6-methyl-2-oxo-1,2-dihydropyridin-3-yl)methyl)-2-methyl-1-(1-(2-(trifluoromethyl)piperidin-4-yl)ethyl)-1H-indole-3-carboxamide], the EC50 (H3K27me3 mark; 72 hrs) is reported as > 2000 nM and the IC50 (EZH2; EZH2 nuc BSA Brij 1.5 (IC50)) is reported as 100 to 1000 nM.
COc1cc(C)[nH]c(=O)c1CNC(=O)c1c(C)n(C(C)C2CCN(CC(F)F)C(C)C2)c2ccccc12 (single isomer, unassigned) [Compound 41, 1-(1-(1-(2,2-difluoroethyl)-2-methylpiperidin-4-yl)ethyl)-N-((4-methoxy-6-methyl-2-oxo-1,2-dihydropyridin-3-yl)methyl)-2-methyl-1H-indole-3-carboxamide] was tested, and the EC50 (H3K27me3 mark; 72 hrs) was < 400 nM and the IC50 (EZH2; [1]) was < 100 nM.
In the case of COc1cc(C)[nH]c(=O)c1CNC(=O)c1c(C)n(C(C)C2CCNC(C(F)(F)F)C2)c2ccccc12 (single isomer, unassigned) [Compound 22, N-((4-methoxy-6-methyl-2-oxo-1,2-dihydropyridin-3-yl)methyl)-2-methyl-1-(1-(2-(trifluoromethyl)piperidin-4-yl)ethyl)-1H-indole-3-carboxamide], the EC50 (H3K27me3 mark; 72 hrs) is reported as 400 to 2000 nM and the IC50 (EZH2; EZH2 nuc BSA Brij 1.5 (IC50)) is reported as < 100 nM.
COc1cc(C)[nH]c(=O)c1CNC(=O)c1c(C)n(C(C)C2CCNC(C(F)(F)F)C2)c2ccccc12 (single isomer, unassigned) [Compound 12, N-((4-methoxy-6-methyl-2-oxo-1,2-dihydropyridin-3-yl)methyl)-2-methyl-1-(1-(2-(trifluoromethyl)piperidin-4-yl)ethyl)-1H-indole-3-carboxamide] was tested, and the IC50 (EZH2; EZH2 nuc BSA Brij 1.5 (IC50)) was < 100 nM.
With CCC1CC(C(C)n2c(C)c(C(=O)NCc3c(C)cc(C)[nH]c3=O)c3ccccc32)CCN1CC(F)F (centres unmarked) [Compound 69] the IC50 (PRC2 containing wt EZH2; [2]) was < 100 nM and the EC50 (H3K27me3 mark; 72 hrs) was > 2000 nM.
For COc1cc(C)[nH]c(=O)c1CNC(=O)c1c(C)n(C(C)C2CCN(C)C(c3cccc(C(=O)O)c3)C2)c2ccccc12 (centres unmarked) [Compound 97], the IC50 (PRC2 containing wt EZH2; EZH2 pep BSA Brij 4.0 LowE (IC50)) was < 100 nM and the EC50 (H3K27me3 mark; 72 hrs) was > 2000 nM.
For Cc1cc(C)c(CNC(=O)c2c(C)n(C(C)C3CCNC(CC(F)(F)F)C3)c3ccccc23)c(=O)[nH]1 (centres unmarked) [Compound 84], the IC50 (PRC2 containing wt EZH2; [2]) was < 100 nM and the EC50 (H3K27me3 mark; Homo sapiens, HeLa, 72 h) was 400 to 2000 nM.
